Experimental data taken from ChEMBL document CHEMBL3421586, “1,19-seco-Avermectin analogues from a ΔaveCDE mutant Streptomyces avermectinius strain” (J Nat Prod, 2015).
Structures can show the parent of a compound that is named as a salt.

Assays:
Type in all cases: functional, cell-based
[1] = Growth inhibition of human Saos2 cells by MTT method; conditions: SAOS-2
[2] = Growth inhibition of human MG63 cells by MTT method; conditions: MG-63
[3] = tested on: B16; experiment: Growth inhibition of mouse B16 cells by MTT method

SMILES | IC50 [1] [µM] | IC50 [2] [µM] | IC50 [3] [µM]
CC[C@H](C)[C@H]1O[C@@]2(CCC[C@@H](C/C=C(\C)[C@@H](O)[C@@H](C)/C=C/C=C(\C)c3cc(O)c(C)cc3C(=O)O)O2)C[C@H](O)[C@@H]1C | 1.9 | 5.1 | 14.7
CC[C@H](C)[C@H]1O[C@@]2(C=CC[C@@H](C/C=C(\C)[C@@H](O)[C@@H](C)/C=C/C=C(\C)c3cc(O)c(C)cc3C(=O)O)O2)C=C[C@@H]1C | 2.5 | 6.9 | 35.1
CC[C@H](C)[C@H]1O[C@@]2(CCC[C@@H](C/C=C(\C)[C@@H](O[C@H]3C[C@H](OC)[C@@H](O)[C@H](C)O3)[C@@H](C)/C=C/C=C(\C)c3cc(O)c(C)cc3C(=O)O)O2)C[C@H](O)[C@@H]1C | 0.7 | 1.7 | 40.6
COc1cccc2c1C(=O)c1c(O)c3c(c(O)c1C2=O)C[C@@](O)(C(=O)CO)C[C@@H]3O[C@H]1C[C@H](N)[C@H](O)[C@H](C)O1 [DOXORUBICIN HYDROCHLORIDE] | 4.2 | 5.2 | 6.4
CC[C@H](C)[C@H]1O[C@]2(C=C[C@@H]1C)C[C@@H]1C[C@@H](C/C=C(\C)[C@@H](O[C@H]3C[C@H](OC)[C@@H](O[C@H]4C[C@H](OC)[C@@H](O)[C@H](C)O4)[C@H](C)O3)[C@@H](C)/C=C/C=C3\CO[C@@H]4[C@H](O)C(C)=C[C@@H](C(=O)O1)[C@]34O)O2 [ABAMECTIN COMPONENT B1A] | 14.7 | 8.6 | 20.5
